Experimental data reported in patent US8334267B2, “Mangiferin calcium salts, the method for its preparation and its use” (Hainan Deze Drug Research Co., Ltd., priority 2007, dated 2012).
Counter-ions that a name gives are not always drawn.

Tests used:
GK rats = assay: Efficacy in GK model (plasma glucose, insulin, lipids); assay type: in vivo, Goto-Kakizaki rats (GK)
Description: Rosiglitazone Hydrochloride tablets were purchased from Zhejiang wanma pharmaceutical Co., Ltd. Mangiferin and mangiferin calcium were suspended with 3% sodium carboxymethyl cellulose before use.
Goto-Kakizaki rats (GK) (16 weeks age, ♀ ♂) were purchased from Shanghai SLAC laboratory animal Co., Ltd. The animals were kept in IVC cages with temperature (22° C.). There are two rats in each cage.
Experimental group: GK rats group (n=10); mangiferin groups (20, 40, 80 mg/kg, each 10 rats); mangiferin calcium groups (10, 20, 40 mg/kg, each 10 rats); Rosiglitazone Hydrochloride group [3 mg/kg, n=10]. Test samples or vehicle control was given orally for 30 days. GK rats group were given vehicle.
The blood specimens were taken by abdominal aorta at the end of the test. Plasma glucose (GLU), insulin (INS), triglycerides (TG), total cholesterol (TC), high density lipoprotein (HDL), low density lipoprotein (LDL) were determined
GLU, TC, TG, HDL and LDL levels were determined using GF-D800 semi-auto chemist which was purchased from Shandong Gaomi Caihong Analytical Instrument Co., Ltd. Insulin: radioimmunoassay (RIA), γ counter counts. insulin RIA Kit was purchased from Shandong Weifang City three-dimensional (3V) Biological company.
Statistics: The results have been calculated as mean±SD ( x±SD) and comparisons of the data have been done by t-test.

[1] = Water solubility test in distilled water
Description: 5 mg mangiferin powder which is weighed up accurately is put into 50 ml distilled water, the solution is shaked acutely 30 second every 5 minutes.
100 mg mangiferin calcium powder which is obtained by the method for preparation of example 8 and weighed up accurately is put into 50 ml distilled water, the solution is shaked acutely 30 second every 5 minutes.

[2] = Pharmacokinetics of mangiferin and mangiferin calcium after oral administration; assay type: in vivo, rats; settings: rat, in vivo, po, 100 mg/kg
Description: 1, The Confect of Drug Solution
Mangiferin is suspended in Carboxymethyl cellulose sodium solution which concentration is one percent; the mangiferin concentration is 10 mg/mL, which is sample A.
All rats were fasted for 16 hours, free drinking water. The rats are oral administrated separately sample A and sample B, which dose is 100 mg/kg. The rats were taken whole blood in 5 minutes before oral administrated and 15 min, 30 min, 45 min, 60 min, 90 min, 120 min, 180 min, 240 min, 300 min, 360 min, 480 min after oral administrated. Serum is separated from these blood samples.
Serum Samples are extracted accurately 0.2 ml into centrifuge tubes separately; then 40 μL cold trichloroacetic acid solution which concentration is ten percent is added into centrifuge tubes separately. The samples are whorled 3 minutes; then centrifuged 12000 r/min for 10 minutes, 120 μl the up layer solution are extracted from centrifuge tubes and put into sample bottles separately. All the samples are detected by HPLC.
Apparatus: Angilent 1100 HPLC (American Agilent Co.), include G1312A dual pump G1313A Auto-Sampler.
Chromatographic column: discover ODS column (250 mm×6 mm, 5 μm);
The mobile phase: Acetonitrile—0.1% H3PO4 water (13:87 v/v)
Velocity of flow: 1.0 ml/min
Detection Wavelength: 254 nm.
Column temperature: 30° C.

STZ rats = assay: Efficacy in STZ model (plasma glucose, insulin, lipids, glucose clamp); assay type: in vivo, wistar rats; settings: for Glucose infusion rate: glucose clamp; for FFA / GLU / INS / TG: high fat chow
Description: Rosiglitazone Hydrochloride tablets were purchased from Zhejiang wanma pharmaceutical Co., Ltd. Mangiferin and mangiferin calcium salts were suspended with 3% sodium carboxymethyl cellulose.
Normal female wistar rats (SPF, 3 months age, 180-200 g) were purchased from Hainan provincial peoples hospital experimental Animal Center. The animals were kept in a room temperature (25˜28° C.) with free access of food and water. A light-dark cycle (6 a.m and 6 p.m) was strictly enforced. High fat chow is composed of 55% basic chow, 2% protein, 16% fat, 27% white sugar.
Model: After the rats were fasted for 12 hours, the rats are injected 30-35 mg/kg streptozotocin (STZ) solution once by tail vein. STZ solution is prepared to 2% concentration with […], pH 4.4 citrate-sodium citrate buffer before use. The model rats were weighed, taked out tail vein blood, tested blood glucose when the Model is done after 14 days after fasting for 12 hours, then injected 20% glucose solution ([…]) by intraperitoneal, determined blood glucose in 0.5 h, 1 h, 2 h. The rats whose glucose tolerance is abnormal were brought into experiments. Normal wistar rats were fed normal chow, model rats were fed high fat chow.
Experimental group:normal wistar rats group (n=10); after Diabetes model is succeed, the rats were randomly divided into 7 groups: Diabetes model group (n=10); mangiferin groups (20, 40, 80 mg/kg, each 10 rats); mangiferin calcium groups (10, 20, 40 mg/kg, each 10 rats); Rosiglitazone Hydrochloride group [3 mg/kg, n=10]. Test samples or vehicle control was given orally for 8 weeks. Diabetes model group and normal group were given vehicle.
Determination of insulin sensitivity (Glucose infusion rate): Using glucose clamp technique, in accordance with Konglingdong'method ? KONG Ling-dong, ZHU Liang-zheng, SONG Ju-min, etc al. Intervention Effects of Tiaozhi Jiangtang Tablet on Insulin Resistance in Rats with Diabetes Mellitus Type 2.
Determination of plasma glucose and lipid: Rats were taken whole blood after killed, then serum was separated, determined plasma glucose (GLU), insulin (INS), triglycerides (TG) and free fatty acids (FFA).
GLU and TG levels were determined using GF-D800 semi-auto chemist which was purchased from Shandong Gaomi Caihong Analytical Instrument Co., Ltd. Free fatty acids were determined using copper colorimetric determination. The kits for Determination of free fatty acids were purchased from Nanjing Jiancheng Bioengineering Institute. Insulin: radioimmunoassay (RIA), γ counter counts. insulin RIA Kit was purchased from Shandong Weifang City three-dimensional (3V) Biological company.
Statistics: The results have been calculated as mean±SD ( x±SD) and compareisons of the data have been done by t-test.

**Q.** For O=c1c2cc(O)c(O)cc2oc2cc(O)c(C3OC(CO)C(O)C(O)C3O)c(O)c12 (stereo not shown) [Mangiferin], which GLU (GK rats; 20 mg/kg orally for 30 days) is on record?
**A.** 19.65 ± 5.07 mmol/L

**Q.** And the HDL (GK rats; 20 mg/kg orally for 30 days)?
**A.** 0.68 ± 0.12 mmol/L

**Q.** What about the INS (GK rats; 20 mg/kg orally for 30 days) of the same molecule?
**A.** 26.94 ± 4.89 μ IU/ml

**Q.** And the LDL (GK rats; 20 mg/kg orally for 30 days)?
**A.** 1.56 ± 0.26 mmol/L

**Q.** And the TC (GK rats; 20 mg/kg orally for 30 days)?
**A.** 2.54 ± 0.28 mmol/L

**Q.** And the TG (GK rats; 20 mg/kg orally for 30 days)?
**A.** 1.69 ± 0.31 mmol/L

**Q.** What about the “improvement of GLU, TC, TG, HDL and LDL and INS in diabetic GK rats” value (GK rats; 20 mg/kg orally for 30 days) of the same molecule?
**A.** does not significantly improve

**Q.** And the GLU (GK rats; 40 mg/kg orally for 30 days)?
**A.** 20.33 ± 4.09 mmol/L

**Q.** And the HDL (GK rats; 40 mg/kg orally for 30 days)?
**A.** 0.75 ± 0.13 mmol/L

**Q.** What about the INS (GK rats; 40 mg/kg orally for 30 days) of the same molecule?
**A.** 24.44 ± 1.91 μ IU/ml

**Q.** And the LDL (GK rats; 40 mg/kg orally for 30 days)?
**A.** 1.33 ± 0.41 mmol/L

**Q.** What about the TC (GK rats; 40 mg/kg orally for 30 days) of the same molecule?
**A.** 2.50 ± 0.45 mmol/L

**Q.** What about the TG (GK rats; 40 mg/kg orally for 30 days) of the same molecule?
**A.** 1.61 ± 0.22 mmol/L

**Q.** What about the “improvement of TG, HDL and LDL in diabetic GK rats” value (GK rats; 40 mg/kg orally for 30 days) of the same molecule?
**A.** improves

**Q.** And the GLU (GK rats; 80 mg/kg orally for 30 days)?
**A.** 20.57 ± 4.13 mmol/L

**Q.** And the HDL (GK rats; 80 mg/kg orally for 30 days)?
**A.** 0.78 ± 0.11 mmol/L

**Q.** What about the INS (GK rats; 80 mg/kg orally for 30 days) of the same molecule?
**A.** 16.68 ± 1.76 μ IU/ml

**Q.** And the LDL (GK rats; 80 mg/kg orally for 30 days)?
**A.** 1.30 ± 0.38 mmol/L

**Q.** What about the TC (GK rats; 80 mg/kg orally for 30 days) of the same molecule?
**A.** 2.45 ± 0.31 mmol/L

**Q.** And the TG (GK rats; 80 mg/kg orally for 30 days)?
**A.** 1.59 ± 0.16 mmol/L

**Q.** What about the “dissolves in 30 minutes” value ([1]; 5 mg powder in 50 ml distilled water) of the same molecule?
**A.** can't be dissolved

**Q.** What about the solubility at 30 min ([1]; water, thermodynamic from solid) of the same molecule?
**A.** < 100 µg/mL

**Q.** What about the AUC(0-inf) [2] of the same molecule?
**A.** 31100 ng·h/mL

**Q.** And the Cmax [2]?
**A.** 14800 ± 500 ng/mL

**Q.** And the T1/2β [2]?
**A.** 45.7 ± 8.3 min

**Q.** And the “improvement of GLU, TG, FFA, INS, Glucose infusion rate in diabetic rats” value (STZ rats; 20 mg/kg orally for 8 weeks)?
**A.** does not significantly improve

**Q.** What about the Glucose infusion rate (STZ rats; 20 mg/kg orally for 8 weeks) of the same molecule?
**A.** 15.75 ± 3.69 mg/kg · min

**Q.** And the Glucose infusion rate (STZ rats; 40 mg/kg orally for 8 weeks)?
**A.** 18.32 ± 3.89 mg/kg · min

**Q.** And the Glucose infusion rate (STZ rats; 80 mg/kg orally for 8 weeks)?
**A.** 23.65 ± 3.67 mg/kg · min

**Q.** And the FFA (STZ rats; 20 mg/kg orally for 8 weeks)?
**A.** 1.79 ± 0.24 µmol/L

**Q.** What about the GLU (STZ rats; 20 mg/kg orally for 8 weeks) of the same molecule?
**A.** 10.56 ± 0.38 mmol/L

**Q.** And the INS (STZ rats; 20 mg/kg orally for 8 weeks)?
**A.** 33.42 ± 3.79 μ IU/ml

**Q.** What about the TG (STZ rats; 20 mg/kg orally for 8 weeks) of the same molecule?
**A.** 3.42 ± 0.41 mmol/L

**Q.** What about the FFA (STZ rats; 40 mg/kg orally for 8 weeks) of the same molecule?
**A.** 1.56 ± 0.19 µmol/L

**Q.** And the GLU (STZ rats; 40 mg/kg orally for 8 weeks)?
**A.** 8.45 ± 0.23 mmol/L

**Q.** What about the INS (STZ rats; 40 mg/kg orally for 8 weeks) of the same molecule?
**A.** 28.13 ± 3.74 μ IU/ml

**Q.** And the TG (STZ rats; 40 mg/kg orally for 8 weeks)?
**A.** 2.82 ± 0.22 mmol/L

**Q.** What about the FFA (STZ rats; 80 mg/kg orally for 8 weeks) of the same molecule?
**A.** 1.29 ± 0.34 µmol/L

**Q.** What about the GLU (STZ rats; 80 mg/kg orally for 8 weeks) of the same molecule?
**A.** 7.05 ± 0.44 mmol/L

**Q.** And the INS (STZ rats; 80 mg/kg orally for 8 weeks)?
**A.** 24.35 ± 3.46 μ IU/ml

**Q.** And the TG (STZ rats; 80 mg/kg orally for 8 weeks)?
**A.** 1.82 ± 0.32 mmol/L

**Q.** What does the source list for CN(CCOc1ccc(CC2SC(=O)NC2=O)cc1)c1ccccn1 (stereo not shown) [Rosiglitazone, Rosiglitazone Hydrochloride]?
**A.** GLU (GK rats; 3 mg/kg orally for 30 days): 24.38 ± 2.26 mmol/L; HDL (GK rats; 3 mg/kg orally for 30 days): 0.78 ± 0.07 mmol/L; INS (GK rats; 3 mg/kg orally for 30 days): 17.58 ± 9.80 μ IU/ml; LDL (GK rats; 3 mg/kg orally for 30 days): 1.37 ± 0.19 mmol/L; TC (GK rats; 3 mg/kg orally for 30 days): 2.40 ± 0.17 mmol/L; TG (GK rats; 3 mg/kg orally for 30 days): 1.48 ± 0.12 mmol/L; Glucose infusion rate (STZ rats; 3 mg/kg orally for 8 weeks): 24.75 ± 3.69 mg/kg · min; FFA (STZ rats; 3 mg/kg orally for 8 weeks): 1.25 ± 0.13 µmol/L; GLU (STZ rats; 3 mg/kg orally for 8 weeks): 7.49 ± 2.18 mmol/L; INS (STZ rats; 3 mg/kg orally for 8 weeks): 19.87 ± 4.21 μ IU/ml; TG (STZ rats; 3 mg/kg orally for 8 weeks): 1.44 ± 0.16 mmol/L
